Measurements: publication PMC11830387, “KIRA6 is an Effective and Versatile Mast Cell Inhibitor of IgE‐mediated Activation” (European Journal of Immunology, 2024)

Legend:
LYN [1] = target: T1, LYN (Homo sapiens, UniProt P07948); assay: MicroScale thermophoresis, supported by nanoDSF thermal shift; format: binding
T1 construct: recombinant human active protein kinase LYN (ProQinase, #0358-0000-1)

LYN [2] = target: T2, LYN (Mus musculus, UniProt P25911); assay: in vitro kinase assay with immunoprecipitated LYN and GST-SH3P7 substrate; format: biochemical
T2 construct: LYN immunoprecipitated from unstimulated BMMCs

FYN = target: T3, FYN (Homo sapiens, UniProt P06241); assay: MicroScale thermophoresis, supported by nanoDSF; format: binding
T3 construct: recombinant human active protein kinase FYN (ProQinase, #0352-0000-1)
T3 sequence (P06241 2-537): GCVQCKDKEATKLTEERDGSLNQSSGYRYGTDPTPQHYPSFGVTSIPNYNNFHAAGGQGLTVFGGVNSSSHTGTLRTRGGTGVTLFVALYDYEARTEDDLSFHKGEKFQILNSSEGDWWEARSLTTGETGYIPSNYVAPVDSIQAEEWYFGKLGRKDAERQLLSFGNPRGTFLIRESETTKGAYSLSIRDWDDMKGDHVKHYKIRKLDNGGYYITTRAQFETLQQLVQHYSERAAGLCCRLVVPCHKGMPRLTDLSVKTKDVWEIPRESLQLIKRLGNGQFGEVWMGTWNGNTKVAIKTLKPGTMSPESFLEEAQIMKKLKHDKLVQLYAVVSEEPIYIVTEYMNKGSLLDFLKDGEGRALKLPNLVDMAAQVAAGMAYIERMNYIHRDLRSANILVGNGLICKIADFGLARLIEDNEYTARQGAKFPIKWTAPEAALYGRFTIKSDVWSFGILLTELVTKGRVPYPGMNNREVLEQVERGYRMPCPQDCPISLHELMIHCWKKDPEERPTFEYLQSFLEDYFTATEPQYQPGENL

T2 sequence (P25911 2-512): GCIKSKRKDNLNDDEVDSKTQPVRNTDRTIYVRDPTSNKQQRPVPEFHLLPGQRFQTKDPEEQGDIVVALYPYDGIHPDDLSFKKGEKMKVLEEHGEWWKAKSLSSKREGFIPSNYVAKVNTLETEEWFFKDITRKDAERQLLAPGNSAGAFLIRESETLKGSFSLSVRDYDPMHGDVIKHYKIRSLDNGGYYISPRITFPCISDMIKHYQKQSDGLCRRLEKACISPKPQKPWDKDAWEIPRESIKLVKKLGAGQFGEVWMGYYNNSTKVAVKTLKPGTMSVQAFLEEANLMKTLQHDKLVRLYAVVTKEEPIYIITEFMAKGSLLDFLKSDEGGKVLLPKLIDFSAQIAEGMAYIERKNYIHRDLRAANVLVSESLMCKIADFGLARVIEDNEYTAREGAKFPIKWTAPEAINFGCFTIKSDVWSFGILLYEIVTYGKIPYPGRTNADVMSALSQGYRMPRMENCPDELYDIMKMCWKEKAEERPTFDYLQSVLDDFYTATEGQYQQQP
T1 sequence (P07948 2-512): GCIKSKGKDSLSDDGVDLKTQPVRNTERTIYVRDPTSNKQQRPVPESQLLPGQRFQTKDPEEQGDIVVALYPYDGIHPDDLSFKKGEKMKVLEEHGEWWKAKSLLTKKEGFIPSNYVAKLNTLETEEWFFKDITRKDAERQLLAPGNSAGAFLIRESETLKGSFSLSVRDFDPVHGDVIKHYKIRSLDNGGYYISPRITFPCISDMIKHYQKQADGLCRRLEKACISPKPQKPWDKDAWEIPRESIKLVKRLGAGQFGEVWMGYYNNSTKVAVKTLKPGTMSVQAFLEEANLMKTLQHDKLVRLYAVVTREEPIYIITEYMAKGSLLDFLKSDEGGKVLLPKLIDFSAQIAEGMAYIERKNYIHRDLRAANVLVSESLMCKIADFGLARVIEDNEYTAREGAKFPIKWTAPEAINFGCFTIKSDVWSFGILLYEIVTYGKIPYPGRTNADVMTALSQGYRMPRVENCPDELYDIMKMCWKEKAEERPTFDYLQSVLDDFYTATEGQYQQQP

Kd (LYN [1]): 3.2 ± 1.2 µM
IC50 (LYN [2]): ~0.3 µM
Kd (FYN): 8.4 ± 2.6 µM
SMILES: CC(C)(C)c1nc(-c2ccc(NC(=O)Nc3cccc(C(F)(F)F)c3)c3ccccc23)c2c(N)nccn12 [KIRA6]
